According to ChEMBL document CHEMBL4616639, “Simplistic perylene-related compounds as inhibitors of tick-borne encephalitis virus reproduction” (Bioorg Med Chem Lett, 2020):
pEC50: −log10 of the molar value.

Legend:
[1] = Cytotoxicity against porcine PEK cells assessed as reduction in cell viability after 24 hrs by microscopic method; assay type: cell-based, Sus scrofa; settings: pig
[2] = Cytotoxicity against porcine PEK cells assessed as reduction in cell viability after 7 days by microscopic method; assay type: cell-based, Sus scrofa; settings: pig
[3] = system: Tick-borne encephalitis virus; assay: microbe, parasite or virus in culture; assay type: functional, organism-based; settings: PEK
[4] = Selectivity index, ratio of CC50 for porcine PEK cells assessed as reduction in cell viability after 24 hrs by microscopic method to EC50 for TBEV Absettarov infected in porcine PEK cells assessed as plaque reduction preincubated for 1 hr followed by overlaying with 1.26% methylcellulose and measured after 6 days by gentian violet staining-based assay; assay type: toxicity; settings: pig, read-out: Ratio CC50/EC50

Row | SMILES | CC50 at 24 h [1] | CC50 at 168 h [2] | pEC50 [3] | selectivity ratio at 24 h [4]
1 | O=c1[nH]c(=O)n([C@@H]2O[C@H](CO)[C@@H](O)[C@@H]2O)cc1C#Cc1ccc2c3cccc4cccc(c5cccc1c52)c43 | > 50 µM | > 50 µM | – | –
2 | OC[C@H]1O[C@@H](n2cnc3c(NCc4c5ccccc5cc5ccccc45)ncnc32)[C@H](O)[C@@H]1O | > 50 µM | > 50 µM | 4.66 | –
3 | O=c1[nH]c(=O)n([C@@H]2O[C@H](CO)[C@@H](O)[C@H]2O)cc1C#Cc1ccc2c3cccc4cccc(c5cccc1c52)c43 | > 100 µM | > 100 µM | 8.11 | –
4 | O=c1[nH]cc(C#Cc2ccc3c4cccc5cccc(c6cccc2c63)c54)c(=O)[nH]1 | > 100 µM | 37 µM | 8.10 | –
5 | CO[C@@H]1[C@H](O)[C@@H](CO)O[C@H]1n1cc(C#Cc2ccc3c4cccc5cccc(c6cccc2c63)c54)c(=O)[nH]c1=O | > 50 µM | 38 µM | 8.22 | –
6 | CN(C)c1ccc(C#Cc2ccc3c4cccc5cccc(c6cccc2c63)c54)cc1 | > 100 µM | > 100 µM | 7.60 | –
7 | O=C(O)c1ccc(-c2ccc3c4cccc5cccc(c6cccc2c63)c54)s1 | > 70 µM | 26 µM | 8.80 | > 30000
8 | CC(=O)Nc1ccc(C#Cc2ccc3c4cccc5cccc(c6cccc2c63)c54)cc1 | > 100 µM | > 100 µM | 7.05 | –
9 | CCCCNC(=O)c1ccc(-c2ccc3c4cccc5cccc(c6cccc2c63)c54)s1 | > 100 µM | > 100 µM | 8.41 | –
10 | O=C(NCCCCO)c1ccc(-c2ccc3c4cccc5cccc(c6cccc2c63)c54)s1 | > 70 µM | > 70 µM | 8.05 | –
11 | O=C(O)c1ccc2c3cccc4cccc(c5cccc1c52)c43 | > 50 µM | 37 µM | 7.43 | –
12 | O=C(c1ccc(-c2ccc3c4cccc5cccc(c6cccc2c63)c54)s1)N(CCO)CCO | > 70 µM | > 70 µM | 7.82 | –
13 | Cc1cc(O)c2c3c4c(cc(O)c13)C(C)(C)C(=O)c1c(O)cc(O)c(c1-4)C2=O [HELIOMYCIN] | 3.7 µM | 3.7 µM | 6.82 | –
